BindingDB's records for doi:10.1021/jm00103a005 (National Institute On Drug Abuse, 1993)
Where a name gives a salt, the structure may show the parent alone.

How the values were obtained:
[1] = Inhibition of specific binding of [3H]3-PPP to sigma receptor in Guinea pig brain membranes
[2] = target: Sigma non-opioid intracellular receptor 1 (Cavia porcellus) (UniProt Q60492); experiment: Inhibition of specific binding of [3H]NANM of sigma binding site in Guinea pig brain membranes
[3] = target: Sigma non-opioid intracellular receptor 1 (Cavia porcellus) (UniProt Q60492); experiment: Inhibition of specific binding of [125I]-PIPAG to sigma binding site in Guinea pig brain membranes
[4] = Inhibition of specific binding of [3H]3-PPP to sigma binding site in Guinea pig brain membranes
[5] = Inhibition of specific binding of [3H]DTG to sigma receptor in Guinea pig brain membranes
[6] = target: Sigma non-opioid intracellular receptor 1 (Cavia porcellus) (UniProt Q60492); experiment: Inhibition of specific binding of [3H]DTG to sigma binding site in Guinea pig brain membranes

Chain of Sigma non-opioid intracellular receptor 1 (Cavia porcellus) (Q60492 whole entry, looked up): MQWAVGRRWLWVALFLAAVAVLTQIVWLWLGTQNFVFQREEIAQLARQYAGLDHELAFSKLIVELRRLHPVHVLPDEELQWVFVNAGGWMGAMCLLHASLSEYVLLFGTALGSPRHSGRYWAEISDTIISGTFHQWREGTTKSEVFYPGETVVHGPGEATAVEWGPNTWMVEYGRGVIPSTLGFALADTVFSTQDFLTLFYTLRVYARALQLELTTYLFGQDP

C=CCN1CC[C@]23c4c5ccc(O)c4O[C@H]2[C@@H](O)C=C[C@H]3[C@H]1C5 [NALORPHINE HYDROCHLORIDE]
IC50 [1]: 93 nM | IC50 [2]: 1800 nM | IC50 [3]: 5000 nM | IC50 [4]: 2850 nM | IC50 [5]: 625 nM | IC50 [6]: 4000 nM

CN1CCc2cccc3c2[C@H]1Cc1ccc(O)c(O)c1-3 [APOKYN]
IC50 [2]: > 31000 nM | IC50 [3]: > 10000 nM | IC50 [6]: > 10000 nM
